Test results published in patent US20220226480A1, “LIPID CONJUGATE PREPARED FROM SCAFFOLD MOIETY” (Integrated Nanotherapeutics Inc., priority 2019, published 2022).

How the values were obtained:
[1] = Particle size and polydispersity of LNP containing pro-drug (dynamic light scattering); format: physicochemical; set-up: Size of LNP: unit not given here; details: for Particle Diameter (nm) / Polydispersity index (PDI): LNP containing 10 mol % conjugate, primary PC-lipid DMPC
Method: (§1) LNPs were prepared by dissolving 1,2-Distearoyl-sn-glycero-3-phosphocholine (DSPC) or 1,2-dimyristoyl-sn-glycero-3-phosphocholine (DMPC), cholesterol and 1,2-Distearoyl-sn-glycero-3-phosphoethanolamine-Poly(ethylene glycol) (PEG-DSPE) in ethanol. DSPC, DMPC and PEG-DSPE were purchased from Avanti Polar Lipids (Alabaster, Ala.), and cholesterol was obtained from Sigma (St Louis, Mo.).
(§2) Drug-lipid-conjugates INT-D034, INT-D035, INT-D045, INT-D046, INT-D047, INT-D048, INT-D049, INT-D050, INT-D051, INT-D053, INT-D060, INT-D061, INT-D062, INT-D063, INT-D083, INT-D085, INT-D086, INT-D088 and INT-D089 (see FIG. 3 and Example 7 for structures) were dissolved in isopropanol or THF. LNP were prepared by rapidly mixing DSPC or DMPC, cholesterol, drug-lipid conjugate, and PEG-DSPE (in molar ratio of 49/40/10/1) with phosphate-buffered saline (PBS) using a cross-junction mixer. Formulations were dialyzed against PBS to remove residual ethanol. In formulation$ with more than 10 mol % drug-lipid conjugates, the amount of phospholipid or cholesterol was reduced accordingly.
(§3) The physiochemical properties of the LNPs prepared as described above were subsequently characterized. Particle size was determined by dynamic light scattering using a Malvern Zetasizer Nano ZS (Malvern, UK) following buffer exchange into phosphate-buffered saline. Number-weighted size and distribution date was used. Lipid concentrations were determined by measuring total cholesterol using the Cholesterol E enzymatic assay kit from Wako Chemicals USA (Richmond, Va.). The morphology of LNP formulations containing LD-DEX was analyzed by cryogenic-transmission electron microscopy (cryoTEM).

[2] = Encapsulation efficiency / incorporation of pro-drug in LNP; format: physicochemical; details: for % Entrapment: LNP formulations containing pro-drugs (10 mol %, FIG. 6A); for Encapsulation Efficiency (%): LNP containing 10 mol % conjugate
Method: as §1, §2, §3

[3] = LNP, pro-drug concentration 10 %
[4] = LNP, pro-drug concentration 20 %
[5] = LNP, pro-drug concentration 60 %
[6] = LNP, pro-drug concentration 80 %
[7] = LNP, pro-drug concentration 99 %
[8] = LNP formulations containing pro-drugs (10 mol %, FIG. 6A)
[9] = LNP, pro-drug concentration 98 %
[10] = LNP, pro-drug concentration 50 %

## CCCCC/C=C\C/C=C\CCCCCCCC(=O)O[C@@H](C/C=C\CCCCCCCCOC(=O)c1ccccc1OC(C)=O)CCCCCC [INT-D061]
[1]; [3]
  PdI: 0.061
  Size (nm): 44 nm
[1]; [4]
  PdI: 0.065
  Size (nm): 39 nm
[1]; [5]
  PdI: 0.186
  Size (nm): 72 nm
[1]; [6]
  PdI: 0.089
  Size (nm): 82 nm
[1]; [7]
  PdI: 0.045
  Size (nm): 123 nm

## CCCCC/C=C\C/C=C\CCCCCCCC(=O)O[C@@H](C/C=C\CCCCCCCC(=O)OCC(=O)[C@@]1(O)[C@H](C)C[C@H]2[C@@H]3CCC4=CC(=O)C=C[C@]4(C)[C@@]3(F)[C@@H](O)C[C@@]21C)CCCCCC [INT-D089, 2-((8S,9R,10S,11S,13S,14S,16R,17R)-9-Fluoro-11,17-dihydroxy-10,13,16-trimethyl-3-oxo-6,7,8,9,10,11,12,13,14,15,16,17-dodecahydro-3H-cyclopenta[a]phenanthren-17-yl)-2-oxoethyl (R,Z)-12-linoleoyloxyoleate]
[2]
  % Entrapment: 100%
[1]; [8]
  PdI: 0.07
  Size of LNP: 41

## CCCCCCCCCCCCCCCCCC(=O)O[C@@H](C/C=C\CCCCCCCCOC(=O)CCC(=O)OCC(=O)[C@@]1(O)[C@H](C)C[C@H]2[C@@H]3CCC4=CC(=O)C=C[C@]4(C)[C@@]3(F)[C@@H](O)C[C@@]21C)CCCCCC [INT-D050, 2-((8S,9R,10S,11S,13S,14S,16R,17R)-9-fluoro-11,17-dihydroxy-10,13,16-trimethyl-3-oxo-6,7,8,9,10,11,12,13,14,15,16,17-dodecahydro-3H-cyclopenta[a]phenanthren-17-yl)-2-oxoethyl ((R,Z)-12-(stearoyloxy)octadec-9-en-1-yl) succinate]
[2]; primary PC-lipid DMPC
  Encapsulation Efficiency (%): 97%
[2]
  % Entrapment: 90%
[1]
  Particle Diameter (nm): 61 nm
  Polydispersity index (PDI): 0.04
[1]; [8]
  PdI: 0.05
  Size of LNP: 60
[1]; [6]
  PdI: 0.01
  Size (nm): 101 nm
[1]; [9]
  PdI: 0.02
  Size (nm): 61 nm
[1]; [7]
  PdI: 0.01
  Size (nm): 105 nm

## CCCCCC[C@H](C/C=C\CCCCCCCCOC(=O)CC/C(C)=C/Cc1c(O)c2c(c(C)c1OC)COC2=O)OC(=O)CCCCC [INT-D062, (12R)-Hexanoyloxyoleyl (E) 6-(4-hydroxy-6-methoxy-7-methyl-3-oxo-1,3-dihydroisobenzofuran-5-yl)-4-methylhex-4-enoate]
[1]; [3]
  PdI: 0.085
  Size (nm): 42 nm
[1]; [4]
  PdI: 0.072
  Size (nm): 39 nm
[1]; [5]
  PdI: 0.212
  Size (nm): 70 nm
[1]; [6]
  PdI: 0.021
  Size (nm): 68 nm
[1]; [7]
  PdI: 0.019
  Size (nm): 93 nm

## CCCCCC[C@H](C/C=C\CCCCCCCCOC(=O)c1ccccc1OC(C)=O)OC(=O)CCCCC [INT-D060, (R,Z)-12-Hexanoyloxyoctadec-9-en-1-yl 2-acetoxybenzoate]
[1]; [3]
  PdI: 0.06
  Size (nm): 46 nm
[1]; [4]
  PdI: 0.116
  Size (nm): 42 nm
[1]; [5]
  PdI: 0.216
  Size (nm): 71 nm
[1]; [6]
  PdI: 0.042
  Size (nm): 67 nm
[1]; [7]
  PdI: 0.034
  Size (nm): 98 nm

## CC/C=C\C/C=C\C/C=C\CCCCCCCC(=O)O[C@@H](C/C=C\CCCCCCCCOC(=O)CCC(=O)OCC(=O)[C@@]1(O)[C@H](C)C[C@H]2[C@@H]3CCC4=CC(=O)C=C[C@]4(C)[C@@]3(F)[C@@H](O)C[C@@]21C)CCCCCC [INT-D049, 2-((8S,9R,10S,11S,13S,14S,16R,17R)-9-fluoro-11,17-dihydroxy-10,13,16-trimethyl-3-oxo-6,7,8,9,10,11,12,13,14,15,16,17-dodecahydro-3H-cyclopenta[a]phenanthren-17-yl)-2-oxoethyl ((R,Z)-12-(linolenoyloxy)octadec-9-en-1-yl) succinate]
[2]; primary PC-lipid DMPC
  Encapsulation Efficiency (%): 94%
[2]; primary PC-lipid DSPC
  Encapsulation Efficiency (%): 100%
[2]
  % Entrapment: 100%
[1]
  Particle Diameter (nm): 68 nm
  Polydispersity index (PDI): 0.05
[1]; [8]
  PdI: 0.11
  Size of LNP: 65
[1]; [10]
  PdI: 0.05
  Size (nm): 44 nm
[1]; [5]
  PdI: 0.02
  Size (nm): 61 nm
[1]; [6]
  PdI: 0.03
  Size (nm): 92 nm
[1]; [9]
  PdI: 0.05
  Size (nm): 69 nm
[1]; [7]
  PdI: 0.03
  Size (nm): 103 nm

## CCCCC/C=C\C/C=C\CCCCCCCC(=O)O[C@@H](C/C=C\CCCCCCCCOC(=O)CC/C(C)=C/Cc1c(O)c2c(c(C)c1OC)COC2=O)CCCCCC [INT-D063, (12R)-Linoleoyloxyoleyl (E)-6-(4-hydroxy-6-methoxy-7-methyl-3-oxo-1,3-dihydroisobenzofuran-5-yl)-4-methylhex-4-enoate]
[1]; [3]
  PdI: 0.069
  Size (nm): 41 nm
[1]; [4]
  PdI: 0.056
  Size (nm): 41 nm
[1]; [5]
  PdI: 0.149
  Size (nm): 57 nm
[1]; [6]
  PdI: 0.031
  Size (nm): 91 nm
[1]; [7]
  PdI: 0.028
  Size (nm): 119 nm

## CCCCC/C=C\C/C=C\C/C=C\C/C=C\CCCC(=O)O[C@@H](C/C=C\CCCCCCCCOC(=O)CCC(=O)OCC(=O)[C@@]1(O)[C@H](C)C[C@H]2[C@@H]3CCC4=CC(=O)C=C[C@]4(C)[C@@]3(F)[C@@H](O)C[C@@]21C)CCCCCC [INT-D051, 2-((8S,9R,10S,11S,13S,14S,16R,17R)-9-fluoro-11,17-dihydroxy-10,13,16-trimethyl-3-oxo-6,7,8,9,10,11,12,13,14,15,16,17-dodecahydro-3H-cyclopenta[a]phenanthren-17-yl)-2-oxoethyl ((R,Z)-12-(arachidonoyloxy)octadec-9-en-1-yl) succinate]
[2]; primary PC-lipid DMPC
  Encapsulation Efficiency (%): 84%
[2]; primary PC-lipid DSPC
  Encapsulation Efficiency (%): 100%
[2]
  % Entrapment: 100%
[1]
  Particle Diameter (nm): 65 nm
  Polydispersity index (PDI): 0.03
[1]; [8]
  PdI: 0.04
  Size of LNP: 61
[1]; [6]
  PdI: 0.02
  Size (nm): 87 nm
[1]; [9]
  PdI: 0.04
  Size (nm): 56 nm
[1]; [7]
  PdI: 0.01
  Size (nm): 93 nm

## CCCCCCCCCCCC(=O)O[C@@H](C/C=C\CCCCCCCCOC(=O)CCC(=O)OCC(=O)[C@@]1(O)[C@H](C)C[C@H]2[C@@H]3CCC4=CC(=O)C=C[C@]4(C)[C@@]3(F)[C@@H](O)C[C@@]21C)CCCCCC [INT-D046, (R,Z)-12-(dodecanoyloxy)octadec-9-en-1-yl (2-((8S,9R,10S,11S,13S,14S,16R,17R)-9-fluoro-11,17-dihydroxy-10,13,16-trimethyl-3-oxo-6,7,8,9,10,11,12,13,14,15,16,17-dodecahydro-3H-cyclopenta[a]phenanthren-17-yl)-2-oxoethyl) succinate]
[2]; primary PC-lipid DMPC
  Encapsulation Efficiency (%): 93%
[2]
  % Entrapment: 100%
[1]
  Particle Diameter (nm): 69 nm
  Polydispersity index (PDI): 0.04
[1]; [8]
  PdI: 0.08
  Size of LNP: 64

## CCCCCCCCC(OC(=O)CCCCC)C(CCCCCCCC(=O)OCC(=O)[C@@]1(O)[C@H](C)C[C@H]2[C@@H]3CCC4=CC(=O)C=C[C@]4(C)[C@@]3(F)[C@@H](O)C[C@@]21C)OC(=O)CCCCC (stereo partly drawn) [INT-D085, 1-(2-((8S,9R,10S,11S,13,14S,16R,17R)-9-Fluoro-11,17-dihydroxy-10,13,16-trimethyl-3-oxo-6,7,8,9,10,11,12,13,14,15,16,17-dodecahydro-3H-cyclopenta[a]phenanthren-17-yl)-2-oxoethoxy)-1-oxooctadecane-9,10-diyl dihexanoate]
[2]
  % Entrapment: 100%
[1]; [8]
  PdI: 0.06
  Size of LNP: 42
[1]; [3]
  PdI: 0.064
  Size (nm): 42 nm
[1]; [4]
  PdI: 0.075
  Size (nm): 39 nm
[1]; [5]
  PdI: 0.059
  Size (nm): 56 nm
[1]; [6]
  PdI: 0.034
  Size (nm): 124 nm
[1]; [7]
  PdI: 0.006
  Size (nm): 135 nm
